Measurements reported in EP0816361A2, “Preparation of substituted alkenoic acids” (ELI LILLY AND COMPANY, priority 1996, dated 1998).

System: TXA2 agonist activity
Assay: Absence of Agonist Activity (pressor response in pithed rats)
Format: in vivo

SMILES | pressor response (i.v. administration, doses up to 10 mg/kg) | mean arterial pressure (one minute after dosing at 0.1 mg/kg i.v.)
O=C(O)CCCC/C=C(\c1ccc(-c2nc(C(=O)NCCCCC3CCCCC3)co2)cc1)c1cccnc1 [Example 2, (E)-7-[4-[4-[[(4-Cyclohexylbutyl)amino]carbonyl]-2-oxazolyl]phenyl]-7-(3-pyridyl)hept-6-enoic Acid] | absence of a pressor response | –
O=C(O)CCC/C=C\C[C@H]1[C@@H]2CC[C@@H](C2)[C@@H]1NS(=O)(=O)c1ccccc1 [Example S-145] | – | transient, but significant, increase
